Molecular target: T1, human recombinant adenosine A3 receptors (Homo sapiens, UniProt P0DMS8)
T1 construct: host or cells: CHO-K1 (Chinese hamster ovary K1 cells)
T1 sequence (P0DMS8 1-318): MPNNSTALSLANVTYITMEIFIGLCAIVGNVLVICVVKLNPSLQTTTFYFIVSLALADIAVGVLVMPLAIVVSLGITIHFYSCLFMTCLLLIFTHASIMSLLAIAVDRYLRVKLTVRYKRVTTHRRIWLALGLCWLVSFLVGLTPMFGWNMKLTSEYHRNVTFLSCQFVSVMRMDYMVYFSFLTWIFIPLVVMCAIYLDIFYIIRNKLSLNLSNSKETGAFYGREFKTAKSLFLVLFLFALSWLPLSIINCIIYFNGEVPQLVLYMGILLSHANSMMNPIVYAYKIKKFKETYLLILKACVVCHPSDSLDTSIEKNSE
Test: Test for affinity for adenosine A3 receptor ([125I]AB-MECA binding to CHO-K1 cell membranes)
Conditions: for Affinity 10 μM: 10 μM trehalose compound; for Affinity 10 μM / Affinity 3 μM: 0.5 nM [125I]AB-MECA, 60 min, 25° C.; for Affinity 3 μM: 3 μM trehalose compound; for IC50: [125I]AB-MECA displacement
Description: Specifically, ovarium K1 cells of a Chinese hamster (obtained from Euroscreen S. A.; hereunder referred to as “CHO-K1”) expressing human recombinant adenosine A3 receptors were cultured in a modified HEPES buffer free of Ca^2+ and Mg^2+. Subsequently, the cultured CHO-K1 was scraped and homogenized in 50 mM of ice-cooled Tris-HCl (pH 7.4). The resulting mixture was subjected to centrifugation at 48,000×g for 15 minutes to obtain a cell membrane pellet. The obtained cell membrane pellet was washed twice with another modified HEPES buffer, and then subjected again to centrifugation. The washed cell membrane pellet was suspended again in a small quantity of 50 mM Tris-HCl (pH 7.4).
The concentration of the adenosine A3 receptor in the obtained cell membrane pellet was measured as follows. A 0.5 nM amount of [^125I] […] Thereafter, 50 mM of ice-cooled Tris-HCl (pH 7.4) was added thereto to halt the reaction, and then the cell membrane pellet was filtrated out using a glass fiber filter. The filtered cell membrane pellet was washed 3 times with an ice-cooled buffer so as to remove excessive ligands. The radioactivity in the resulting cell membrane pellet on a filter was measured using a scintillation counter (Type 1470 Automatic Counter; PerkinElmer, Inc.).
Separately, in order to measure nonspecific bindings of [^125I] AB-MECA other than to an adenosine A3 receptor, 1 μM of […] (a selective radioagonist of A3 receptor N^6-(3-iodobenzyl)-5′-(N-[…]) adenosine) was further added to the obtained suspension of the cell membrane pellet, and the same measurement was carried out as in the aforesaid binding experiment. The average specific binding value of [^125I] AB-MECA to the adenosine A3 receptor was calculated based on the results obtained in the above experiment.
Further, in a Comparative Example, the same measurement was carried out with respect to the compounds taught in Non-Patent Document 1 and Non-Patent Document 2 (in the chemical formula of Table 1, R^1=R^3=octyl, R^2=R^4=heptyl, X=X′=OH, and Y=Y′═O).

Structure (SMILES)	Affinity 10 μM	Affinity 3 μM	IC50 [µM]	Affinity 10 μM (listed as F-5)	Affinity 10 μM (listed as F-6)
CCCCCCCCC(O)C(CCCCCCC)C(=O)OCC1O[C@H](O[C@@H]2OC(COC(=O)C(CCCCCCC)C(O)CCCCCCCC)[C@@H](O)C(O)C2O)C(O)C(O)[C@@H]1O (some centres unmarked) [Comparative Example, reference compound]	29				
CCCCCC[C@@H](O)[C@@H](CCCCC)C(=O)OC[C@H]1O[C@H](O[C@H]2O[C@H](COC(=O)[C@H](CCCCC)[C@H](O)CCCCCC)[C@@H](O)[C@H](O)[C@H]2O)[C@H](O)[C@@H](O)[C@@H]1O [Production Example F-1, 6,6′-bis-O-[(2R,3R)-3-hydroxy-2-pentylnonanoyl]-α,α′-trehalose]	97	56	2.61		
CCCCCC[C@H](O)[C@H](CCCCC)C(=O)OC[C@H]1O[C@H](O[C@H]2O[C@H](COC(=O)[C@@H](CCCCC)[C@@H](O)CCCCCC)[C@@H](O)[C@H](O)[C@H]2O)[C@H](O)[C@@H](O)[C@@H]1O [Production Example F-2, 6,6′-bis-O-[(2S,3S)-3-hydroxy-2-pentylnonanoyl]-α,α′-trehalose]	86	57			
CCCCCC[C@H](O)[C@@H](CCCCC)C(=O)OC[C@H]1O[C@H](O[C@H]2O[C@H](COC(=O)[C@H](CCCCC)[C@@H](O)CCCCCC)[C@@H](O)[C@H](O)[C@H]2O)[C@H](O)[C@@H](O)[C@@H]1O [Production Example F-3, 6,6′-bis-O-[(2R,3S)-3-hydroxy-2-pentylnonanoyl]-α,α′-trehalose]	100	59			
CCCCCC[C@@H](O)[C@H](CCCCC)C(=O)OC[C@H]1O[C@H](O[C@H]2O[C@H](COC(=O)[C@@H](CCCCC)[C@H](O)CCCCCC)[C@@H](O)[C@H](O)[C@H]2O)[C@H](O)[C@@H](O)[C@@H]1O [Production Example F-4, 6,6′-bis-O-[(2S,3R)-3-hydroxy-2-pentylnonanoyl]-α,α′-trehalose]	91	32			
CCCCCCC(OC)C(CCCCC)C(=O)OCC1OC(OC2OC(COC(=O)C(CCCCC)C(CCCCCC)OC)C(O)C(O)C2O)C(O)C(O)C1O [Production Example F-7, 6,6′-bis-O-[(2R,3R)-3-methoxy-2-pentylnonanoyl]-α,α′-trehalose]	96	84			
CCCCC[C@@H](O)[C@@H](CCCC)C(=O)OC[C@H]1O[C@H](O[C@H]2O[C@H](COC(=O)[C@@H](CCCC)[C@@H](O)CCCCC)[C@@H](O)[C@H](O)[C@H]2O)[C@H](O)[C@@H](O)[C@@H]1O [Production Example F-12, 6-O-[(2R,3R)-2-butyl-3-hydroxyoctanoyl]-6′-O-[(2S,3S)-2-butyl-3-hydroxyoctanoyl]-α,α′-trehalose]	48				
CCCCCC[C@@H](O)[C@@H](CCCCC)C(=O)OC[C@H]1O[C@H](O[C@H]2O[C@H](COC(=O)[C@@H](CCCCC)[C@@H](O)CCCCCC)[C@@H](O)[C@H](O)[C@H]2O)[C@H](O)[C@@H](O)[C@@H]1O [Production Example F-13, 6-O-[(2R,3R)-3-hydroxy-2-pentylnonanoyl]-6′-O-[(2S,3S)-3-hydroxy-2-pentylnonanoyl]-α,α′-trehalose]	97	54	2.75		
CCCCCC[C@@H](O)[C@@H](CCCCC)C(=O)NC[C@H]1O[C@H](O[C@H]2O[C@H](CNC(=O)[C@H](CCCCC)[C@H](O)CCCCCC)[C@@H](O)[C@H](O)[C@H]2O)[C@H](O)[C@@H](O)[C@@H]1O [Production Example F-15, 6,6′-bis-N-[(2R,3R)-3-hydroxy-2-pentylnonanoylamino]-6,6′-dideoxy-α,α′-trehalose]	69	29			
CCCCCCC(OC)C(CCCCC)C(=O)NCC1OC(OC2OC(CNC(=O)C(CCCCC)C(CCCCCC)OC)C(O)C(O)C2O)C(O)C(O)C1O [Production Example F-16, 6,6′-bis-N-[(2R,3R)-3-methoxy-2-pentylnonanoylamino]-6,6′-dideoxy-α,α′-trehalose]	96	57			
CCCCCCC(CCCCCC)C(=O)NCC1OC(OC2OC(CNC(=O)C(CCCCCC)CCCCCC)C(O)C(O)C2O)C(O)C(O)C1O (stereo not drawn) [Production Example F-17, 6,6′-bis-N-(2-hexyloctanoylamino)-6,6′-dideoxy-α,α′-trehalose]		22			
CCCCCCCC(CCCCC)C(=O)NCC1OC(OC2OC(CNC(=O)C(CCCCC)CCCCCCC)C(O)C(O)C2O)C(O)C(O)C1O (stereo not drawn) [Production Example F-18, 6,6′-bis-N-(2-pentylnonanoylamino)-6,6′-dideoxy-α,α′-trehalose]	89	33			

Next, values leading:

Affinity 10 μM	Affinity 3 μM	IC50 [µM]	Affinity 10 μM (listed as F-5)	Affinity 10 μM (listed as F-6)	Structure (SMILES)
			83		CCCCCCCC(O)C(CCCCCC)C(=O)OCC1OC(OC2OC(COC(=O)C(CCCCCC)C(O)CCCCCCC)C(O)C(O)C2O)C(O)C(O)C1O [Production Example F-5, 6,6′-bis-O-[(2R,3R)-2-hexyl-3-hydroxydecanoyl]-α,α′-trehalose]
				59	CCCCCCCC(O)C(CCCCCC)C(=O)OCC1OC(OC2OC(COC(=O)C(CCCCCC)C(O)CCCCCCC)C(O)C(O)C2O)C(O)C(O)C1O [Production Example F-6, 6,6′-bis-O-[(2S,3S)-2-hexyl-3-hydroxydecanoyl]-α,α′-trehalose]
72	14				CCCCC(CCCC)C(=O)OC[C@H]1O[C@H](O[C@H]2O[C@H](COC(=O)C(CCCC)CCCC)[C@@H](O)[C@H](O)[C@H]2O)[C@H](O)[C@@H](O)[C@@H]1O [Production Example F-8, 6,6′-bis-O-(2-butylhexanoyl)-α,α′-trehalose]
99	97	0.459			CCCCCC(CCCCC)C(=O)OC[C@H]1O[C@H](O[C@H]2O[C@H](COC(=O)C(CCCCC)CCCCC)[C@@H](O)[C@H](O)[C@H]2O)[C@H](O)[C@@H](O)[C@@H]1O [Production Example F-9, 6,6′-bis-O-(2-pentylheptanoyl)-α,α′-trehalose]
66	65				CCCCCCC(CCCCCC)C(=O)OCC1OC(OC2OC(COC(=O)C(CCCCCC)CCCCCC)C(O)C(O)C2O)C(O)C(O)C1O (stereo not drawn) [Production Example F-10, 6,6′-bis-O-(2-hexyloctanoyl)-α,α′-trehalose]
62	74				CCCCCCCC(CCCCC)C(=O)OC[C@H]1O[C@H](O[C@H]2O[C@H](COC(=O)C(CCCCC)CCCCCCC)[C@@H](O)[C@H](O)[C@H]2O)[C@H](O)[C@@H](O)[C@@H]1O (stereo partly drawn) [Production Example F-11, 6,6′-bis-O-(2-pentylnonanoyl)-α,α′-trehalose]
77					CCCCCCC[C@@H](O)[C@@H](CCCCCC)C(=O)OC[C@H]1O[C@H](O[C@H]2O[C@H](COC(=O)[C@@H](CCCCCC)[C@@H](O)CCCCCCC)[C@@H](O)[C@H](O)[C@H]2O)[C@H](O)[C@@H](O)[C@@H]1O [Production Example F-14, 6-O-[(2R,3R)-3-hydroxy-2-hexyldecanoyl]-6′-O-[(2S,3S)-3-hydroxy-2-hexyldecanoyl]-α,α′-trehalose]
